In PMC13619035 (British Journal of Clinical Pharmacology, 2026):

Test: Single-dose pharmacokinetic study in healthy volunteers, plasma concentrations by LC-MS/MS
Format: in vivo, human
Settings: single oral dose of 20 mg pantoprazole or 10 mg omeprazole, 20 healthy volunteers, fasted
Procedure: An open label, randomized, single‐dose pharmacokinetic study in healthy volunteers was conducted in cross‐over design.
The subjects presented to the study facilities fasted in the morning. Three hours after drug intake the subjects received a meal on both study days. […] Venous blood samples (7 mL each) were drawn into EDTA‐containing tubes. Blood samples were centrifuged immediately after blood sampling for 10 min at 2000g to generate blood plasma. Blood plasma was aliquoted and stored at −32 °C until analysis.
Probe drugs and metabolite concentrations were determined using a liquid‐chromatography tandem mass spectrometer (LC–MS/MS) system consisting of an Agilent 1290 Infinity II UHPLC coupled to a Sciex QTRAP6500 + triple quadrupole mass spectrometer.
The total chromatographic method length was increased from 8.5 to 8.8 min. […] Samples were vortexed for 10 s and centrifuged for 20 min at 17.000 x g and 4 °C. A total of 40 μl supernatant were diluted with 40 μl LC grade water, vortexed briefly and centrifuged again for 5 min at 17.000 x g and 4 °C.
The samples were vortexed for 10 s and centrifuged for 20 min at 4 °C and 17.000 x g. […]
The AUC0‐8h metabolic ratios (MR) were calculated as follows: AUC0‐8h MR = AUC0‐8h, metabolite/AUC0‐8h, substrate. […] Statistical significance was assessed using non‐parametric Kruskal‐Wallis test with Dunn's post hoc test. […]

With `COc1ccnc(C[S+]([O-])c2nc3ccc(OC(F)F)cc3[nH]2)c1OC` (stereo not shown) [pantoprazole] the tmax was 2 h.
